# Test results as given in patent US10314816B2, “Antimicrobial compounds, compositions and methods of use thereof” (Wisconsin Alumni Research Foundation, priority 2012, dated 2019).
# Legend:
# [1] = system: E. coli BW25113 ΔtolC; test: MIC of bacterial growth, macrodilution (Table 2); type: cell-based, Escherichia coli
# Procedure: (§1) Bacterial strains and growth conditions. Luria-Bertani (LB) media (10 g/L tryptone, 10 g/L NaCl, 5 g/L yeast extract, pH 7.2) was used to grow B. subtilis 168, S. aureus FRI100, and P. aeruginosa K1115 strains. For P. aeruginosa PAO1 and K1119 strains and two E. coli BW25113 strains, M8 minimal media (241 mg/L MgSO4, 4 mg/L glucose, 5 mg/L casamino acids, 12.8 g/L Na2HPO4.7H2O, 3 g/L KH2PO4, and 0.5 g/L NaCl) was used. PYE media (2 g/L peptone, 1 g/L yeast extract, 0.8 mM MgSO4, and 0.5 mM CaCl2) was used for culturing C. crescentus cells at 30° C. All cultures were grown at 37° C., except for C. crescentus (30° C.). All cultures were grown while shaking at 200 rpm.
# (§2) Determination of the minimum inhibitory concentration (MIC) of bacterial growth. The MIC of various organisms in liquid media was determined using the macrodilution method according to the NCCLS guidelines. For the starting inoculum, cultures were diluted to contain approximately 5×10^5 cells/mL in growth media. To create a two-fold dilution series for the macrodilution technique, each compound was added to the first culture tube (4 mL total volume) at the highest concentration. 2 mL of this culture was diluted into an equal volume of inoculated media (a two-fold dilution). The final volume for each culture was 2 mL.
# [2] = system: E. aerogenes; test: MIC of bacterial growth (Table 2); type: cell-based, Enterobacter aerogenes; conditions: Klebsiella aerogenes; E. aerogenes clinical isolate (Table 2)
# Procedure: as §2
# [3] = system: P. aeruginosa K1119; test: MIC of bacterial growth, macrodilution (Table 2); type: cell-based; conditions: Pseudomonas aeruginosa
# Procedure: as §1, §2
# [4] = system: P. aeruginosa PAO1; test: MIC of bacterial growth, macrodilution (Table 2); type: cell-based; conditions: Pseudomonas aeruginosa
# Procedure: as §1, §2
# [5] = system: E. coli BW25113; test: MIC of bacterial growth, macrodilution (Table 2); type: cell-based; conditions: Escherichia coli
# Procedure: as §1, §2
# [6] = system: P. aeruginosa K1115; test: MIC of bacterial growth, macrodilution (Table 2); type: cell-based; conditions: Pseudomonas aeruginosa
# Procedure: as §1, §2
# [7] = system: E. coli BW25113 ΔtolC; test: MIC of DCAP analogs, LB media, macrodilution (CLSI); type: cell-based; conditions: Escherichia coli
# Procedure: Luria-Bertani (LB) media (10 g/L tryptone, 10 g/L NaCl, 5 g/L yeast extract, pH 7.0) was used to grow all the strains represented in Tables 5 and 6. All the cultures were grown at 37° C. All the E. coli strains were grown while shaking at 200 rpm and the clinical pathogens were statically incubated. […]
# [8] = system: Enterobacter aerogenes; test: MIC of DCAP analogs, LB media, microdilution (CLSI); type: cell-based; conditions: Klebsiella aerogenes, microdilution (Table 6)
# Procedure: (§3) Luria-Bertani (LB) media (10 g/L tryptone, 10 g/L NaCl, 5 g/L yeast extract, pH 7.0) was used to grow all the strains represented in Tables 5 and 6. All the cultures were grown at 37° C. All the E. coli strains were grown while shaking at 200 rpm and the clinical pathogens were statically incubated.
# (§4) For clinical pathogenic organisms including S. typhimurium, V. cholera, S. boydii, K pneumonia, E. aerogenes, A. baumannii, E. tarda, and M. morganii strains, liquid LB media in 96-well microplates (100 μL/well) and the microdilution method from the CLSI guidelines were used.
# [9] = system: Morganella morganii; test: as above; type: cell-based; conditions: microdilution (Table 6)
# Procedure: as §3, §4
# [10] = system: Acinetobacter baumannii; test: as above; type: cell-based; conditions: microdilution (Table 6)
# Procedure: as §3, §4
# [11] = system: Klebsiella pneumonia; test: as above; type: cell-based; conditions: Klebsiella pneumoniae, microdilution (Table 6)
# Procedure: as §3, §4
# [12] = system: Shigella boydii; test: as above; type: cell-based; conditions: microdilution (Table 6)
# Procedure: as §3, §4
# [13] = system: Salmonella typhimurium; test: as above; type: cell-based; conditions: Salmonella enterica, microdilution (Table 6)
# Procedure: as §3, §4
# [14] = system: Edwardsiella tarda; test: as above; type: cell-based; conditions: microdilution (Table 6)
# Procedure: as §3, §4
# [15] = system: Vibrio cholera; test: as above; type: cell-based; conditions: Vibrio cholerae
# Procedure: as §3, §4
# [16] = system: MipZ-YFP; test: Effects of compounds on MipZ localization; type: cell-based, Caulobacter crescentus; conditions: DCAP 20 μM, 20 min after treating C. crescentus cells; p=0.0002 vs DMSO
# Procedure: Effects of compounds on MipZ localization. A strain of C. crescentus in which MipZ was translationally fused to yellow fluorescent protein (YFP) was used to determine the effect of DCAP on MipZ localization. For experiments with C. crescentus expressing MipZ-YFP, overnight cultures were diluted 10-fold and incubated at least 1 hour prior to treatment with compounds. After adding compounds, cells were incubated at 200 rpm and 30° C. for 20 minutes. Cells were imaged as described above. Following cell segmentation and fluorescence signal calculation in MicrobeTracker, a separate MATLAB script was used to detect signal peaks within an individual cell. The number of total peaks and peak locations were calculated (i.e., poles or mid-cell) for each cell. Poles were defined as 1-25% and 75-100% along the normalized cell length (1-100%). […] After this classification, a contingency table was created with the total number of cells analyzed, and the number of cells with the ‘wildtype’ localization. […]
# As a positive control, carbonyl cyanide m-chlorophenyl hydrazone (CCCP) was used. In FIG. 3, ‘wildtype’ (WT) localization was defined as 1) unipolar (a single peak of fluorescence signal at a pole) and 2) bipolar (two peaks at poles). […] At least 69 cells were analyzed for each sample. […]
# [17] = system: A. baumannii; test: MIC of bacterial growth (Table 2); type: cell-based; conditions: Acinetobacter baumannii; A. baumannii clinical isolate (Table 2)
# Procedure: as §2
# [18] = system: M. morganii; test: MIC of bacterial growth (Table 2); type: cell-based; conditions: Morganella morganii; M. morganii clinical isolate (Table 2)
# Procedure: as §2
# [19] = system: S. typhimurium; test: MIC of bacterial growth (Table 2); type: cell-based; conditions: Salmonella enterica; S. typhimurium clinical isolate (Table 2)
# Procedure: as §2
# [20] = system: S. boydii; test: MIC of bacterial growth (Table 2); type: cell-based; conditions: Shigella boydii; S. boydii clinical isolate (Table 2)
# Procedure: as §2
compound,measurement,setting,value
"OCC(CO)(CO)NCC(O)Cn1c2ccc(Cl)cc2c2cc(Cl)ccc21 (stereo not shown) [DCAP, 2-((3-(3,6-dichloro-9H-carbazol-9-yl)-2-hydroxypropyl)amino)-2-(hydroxymethyl)propane-1,3-diol]",Reduction of MIC on deleting tolC in E. coli BW25113,[1]; BW25113 vs BW25113 ΔtolC,4 fold
same,MIC,"[1]; Escherichia coli, BW25113",20 µM
same,MIC,[2],200 µM
same,MIC,[3],160 µM
same,MIC,[4],160 µM
same,MIC,[5],80 µM
same,MIC,[6],80 µM
same,MIC,[7]; BW25113,20 µM
same,MIC,"[7]; BW25113, read-out: MIC (ΔtolC E. coli)",20 µM
same,MIC,[8],200 µM
same,MIC,[9],200 µM
same,MIC,[10],200 µM
same,MIC,[11],200 µM
same,MIC,[12],100 µM
same,MIC,[13],100 µM
same,MIC,[14],100 µM
same,MIC,[15],50 µM
same,MipZ-YFP localization,[16],caused MipZ-YFP to mislocalize
same,MIC,[17],200 µM
same,MIC,[18],200 µM
same,MIC,[19],50 µM
same,MIC,[20],100 µM
